A melting point compilation (Tetko et al.; mined from patent text by program, amines drawn as free bases though some values may be those of a salt)

| SMILES | melting point |
| --- | --- |
| CN(C)C=Nc1c(Cl)cc(NCc2ccc(N(C)C)cc2F)cc1Cl | 118 to 120 °C |
| NC(=O)c1ccc2c(c1)S(=O)(=O)N=CN2C1CC1 | 278 to 281 °C |
| Cc1cccc(C)c1NC(=O)CCCSc1cc(C(C)(C)C)c(O)c(C(C)(C)C)c1 | 140 °C |
| CCCC(=O)c1nc(CCC)[nH]c1C#N | 94 to 95 °C |
| CC(=O)OC1CC2CCC3C4CC(N5CCCCC5)C(=O)C4(C)CCC3C2(C)CC1N1CCCCC1 (stereo unspecified) | 154 °C |
| Cc1nc(C)n(-c2cc([C@@H]3C[C@H]3c3nc4ccccc4n3C)nc(C(F)(F)F)n2)n1 (relative stereo) | 151 to 153 °C |
| Cc1c(Br)cnc(NC(=O)C2CC2)c1[N+](=O)[O-] | 205 °C |
| COCN1C(C)=C(C(=O)OC)C(c2ccccc2C(F)(F)F)C(C(=O)OCOC(=O)C(C)(C)C)=C1C (single isomer, unassigned; (+)) | 110 to 112 °C |
| O=C(NC(=O)c1cccs1)NC1CN2CCC1CC2 (stereo unspecified) | 232 to 233 °C |
| CC1CC2C3CCC4=CC(=O)CCC4=C3CCC2(C)C1O (stereo unspecified) | 146 to 148 °C |
| O=C1NC(=O)C(Cc2ccc(N3CCC(NC[C@H](O)c4csc(C(F)(F)F)n4)CC3)cc2)S1 (stereo partly specified) | 108 to 113 °C |
| COc1cc2c(cc1S(C)(=O)=O)CCN(C(C)=O)CC2 | 159 to 162 °C |
| COc1cc(C(OC(C)=O)C(COC(C)=O)[N+](=O)[O-])ccc1OC(C)=O (stereo unspecified) | 97 to 100 °C |
| CCc1nc2c(cnn2CC)c(NC2CCOCC2)c1CNC(=O)c1cccc(C(=O)NCc2ccc(C)c(-c3cccc(CN4CC(C)NC(C)C4)c3)c2)c1 (stereo unspecified) | 109 to 112 °C |
| Cc1ccc2c(c1)c(Cc1nc3c(F)c(F)cc(F)c3s1)cn2CC(=O)O | 131 to 133 °C |
| CCS(=O)(=O)N(C)c1c(Cl)c(Cl)cc2[nH]c(=O)c(=O)[nH]c12 | > 300 °C |
| COc1cccc2c1CCC(O)(C(C)=O)C2 (stereo unspecified) | 63 to 63.5 °C |
| CCCc1c(OCCCCCc2nnnn2C)ccc(C(C)=O)c1O | 72 to 75 °C |

The next lines start with the values.

| melting point | SMILES |
| --- | --- |
| 136 °C | CC(C)=C1OC(=O)N(c2ccc(C)cc2)C1=O |
| 260 to 263 °C | O=C1C(c2c[nH]c3ccccc23)C(c2c[nH]c3ccccc23)C(=O)N1c1ccccc1 (stereo unspecified) |
| 76.7 °C | CC(O)c1cc(Br)ccc1OCc1ccccc1 (stereo unspecified) |
| 154 to 155 °C | O=C(O)CCC(=C1SCCCS1)c1ccc(Oc2ccccc2)cc1 |
| 249 to 252 °C | O=C(Nc1nccs1)c1nc(-c2ccc([N+](=O)[O-])cc2)[nH]c1-c1ccc(CO)cc1 |
| 137 to 140 °C | Cc1ccc(F)cc1C(=O)Nc1ccc(C(=O)N2Cc3ccnn3Cc3ccccc32)c(Cl)c1 |
| 183 to 185 °C | CCN/C(=C1\C(=O)c2ccccc2S1=O)c1ccccc1 (stereo unspecified) |
| 100 to 102 °C | CCOC(=O)c1cccc(NC(=O)C2=C(C)OCCS2)c1 |
| 125 to 126 °C | CN1C=NC(Cc2ccccc2)(Cc2ccccc2)C1=O |
| 224 to 226 °C | CC(=O)N=c1sccn1CC(=O)c1cccc(NC(C)=O)c1 |
| 30 to 35 °C | COc1cc(C(=O)N(C)CC(CCN2CCC(C(=O)c3nc4ccccc4n3Cc3ccccn3)CC2)c2ccc(F)cc2)cc(OC)c1OC (stereo unspecified) |
| 215 to 217 °C | COC(=O)CN1Cc2c([nH]c3ccccc23)C1=O |
| 220 to 222 °C | Nc1ncc2cc(-c3c(Cl)cccc3Cl)c(=O)n(Cc3ccccc3)c2n1 |
| 208 to 210 °C | Cc1c(-c2cc(Nc3cc4n(n3)CCN(C)C4)c(=O)[nH]n2)cccc1N1Cc2ccc(C(C)(C)C)cc2C1=O |
| 154 to 155 °C | CC(C)(Oc1ccc(CCC(=O)c2ccc(-c3ccc(C(F)(F)F)cc3)s2)cc1)C(=O)O |
| 150 to 151 °C | CC(=O)c1c(-c2ccc(F)cc2)nn(CC2CC2)c(=O)c1Nc1cccc2cccnc12 |
| 170 °C | CC(=O)c1cccc(NC(=O)NCC(=O)N(CC(=O)N(C)c2ccccc2)c2ccccc2)c1 |
| 125 to 127 °C | CCOc1ccccc1C(=O)CCC(=O)O |
